Where two headings read alike, the source gives them in different places.
Tests used:
Format in all cases: in vivo
[1] = test system: surinam grass (Brachiaria decumbens); test: Test B pre-/postemergence plant response; settings: Urochloa decumbens, pre-emergence; Preemergence, 250 g ai/ha; scale 0 to 100; read-out: Plant response rating, Surinam Grass
Excerpt: (§1) Seeds of plant species selected from blackgrass (Alopecurus myosuroides), downy bromegrass (Bromus tectorum), green foxtail (Setaria viridis), Italian ryegrass (Lolium multiflorum), wheat (Triticum aestivum), wild oat (Avena fatua), catchweed bedstraw (Galium aparine), bermudagrass (Cynodon dactylon), surinam grass (Brachiaria decumbens), cocklebur (Xanthium strumarium), corn (Zea mays), large crabgrass (Digitaria sanguinalis), woolly cupgrass (Eriochloa villosa), giant foxtail (Setaria faberii), goosegrass (Eleusine indica), johnsongrass (Sorghum halepense), kochia (Kochia scoparia), lambsquarters (Chenopodium album), morningglory (Ipomoea coccinea), eastern black (E.B.) nightshade (Solanum ptycanthum), yellow nutsedge (Cyperus esculentus), pigweed (Amaranthus retroflexus), common ragweed (Ambrosia elation), Russian thistle (Salsola iberica), soybean (Glycine max), common (oilseed) sunflower (Helianthus annuus), and velvetleaf (Abutilon theophrasti) were planted and treated preemergence with test chemicals formulated in a non-phytotoxic solvent mixture which included a surfactant.
(§2) At the same time, plants selected from these crop and weed species and also winter barley (Hordeum vulgare), canarygrass (Phalaris minor), chickweed (Stellaria media) and windgrass (Apera spica-venti) were treated with postemergence applications of some of the test chemicals formulated in the same manner. Plants ranged in height from 2 to 18 cm (1- to 4-leaf stage) for postemergence treatments.
(§3) Plant species in the flooded paddy test consisted of rice (Oryza sativa), umbrella sedge (Cyperus difformis), ducksalad (Heteranthera limosa) and barnyardgrass (Echinochloa crus-galli) grown to the 2-leaf stage for testing. At time of treatment, test pots were flooded to 3 cm above the soil surface, treated by application of test compounds directly to the paddy water, and then maintained at that water depth for the duration of the test. Treated plants and controls were maintained in a greenhouse for 13 to 15 days, after which time all species were compared to controls and visually evaluated. Plant response ratings, summarized in Table B, are based on a scale of 0 to 100 where 0 is no effect and 100 is complete control. A dash (-) response means no test result.

[2] = test system: morningglory (Ipomoea coccinea); test: Test B pre-/postemergence plant response; settings: Ipomoea, read-out: Plant response rating, Morningglory; for pest or weed control at 62 g/ha: 62 g ai/ha; for pest or weed control at 62 g/ha / pest or weed control at 125 g/ha / pest or weed control at 250 g/ha: scale 0 to 100; for pest or weed control at 125 g/ha: 125 g ai/ha; for pest or weed control at 250 g/ha: 250 g ai/ha
Excerpt: as §1, §2, §3

[3] = test system: Italian ryegrass (Lolium multiflorum); test: Test B pre-/postemergence plant response; settings: Lolium multiflorum, read-out: Plant response rating, Ryegrass, Italian; for pest or weed control at 31 g/ha: 31 g ai/ha, 100 complete control; for pest or weed control at 62 g/ha: 62 g ai/ha; for pest or weed control at 62 g/ha / pest or weed control at 125 g/ha / pest or weed control at 250 g/ha: scale 0 to 100; for pest or weed control at 125 g/ha: 125 g ai/ha; for pest or weed control at 250 g/ha: 250 g ai/ha
Excerpt: as §1, §2, §3

[4] = test system: giant foxtail (Setaria faberii); test: Test B pre-/postemergence plant response; settings: Setaria faberi, read-out: Plant response rating, Foxtail, Giant; for pest or weed control at 31 g/ha: 31 g ai/ha, 100 complete control; for pest or weed control at 62 g/ha: 62 g ai/ha; for pest or weed control at 62 g/ha / pest or weed control at 125 g/ha / pest or weed control at 250 g/ha: scale 0 to 100; for pest or weed control at 125 g/ha: 125 g ai/ha; for pest or weed control at 250 g/ha: 250 g ai/ha
Excerpt: as §1, §2, §3

[5] = test system: lambsquarters (Chenopodium album); test: Test B pre-/postemergence plant response; settings: Chenopodium album, read-out: Plant response rating, Lambsquarters; for pest or weed control at 31 g/ha: 31 g ai/ha, 100 complete control; for pest or weed control at 62 g/ha: 62 g ai/ha; for pest or weed control at 62 g/ha / pest or weed control at 125 g/ha / pest or weed control at 250 g/ha: scale 0 to 100; for pest or weed control at 125 g/ha: 125 g ai/ha; for pest or weed control at 250 g/ha: 250 g ai/ha
Excerpt: as §1, §2, §3

[6] = test system: winter barley (Hordeum vulgare); test: Test B postemergence plant response; settings: Postemergence
Procedure, shortened: (§4)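 Emerged plants, 1- to 4-leaf stage, treated; greenhouse 13–15 d; eye-scored vs untreated controls (0–100 scale).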

[7] = test system: canarygrass (Phalaris minor); test: Test B postemergence plant response; settings: Postemergence
Procedure, shortened: as §4

[8] = test system: chickweed (Stellaria media); test: Test B postemergence plant response; settings: Postemergence
Procedure, shortened: as §4

[9] = test system: windgrass (Apera spica-venti); test: Test B postemergence plant response; settings: Postemergence
Procedure, shortened: as §4

[10] = post-emergence, Postemergence, scale 0 to 100, 0 no effect
[11] = pre-emergence, Preemergence, 0 to 100 scale, 0 no effect
[12] = 31 g ai/ha, scale 0 to 100, 0 no effect, 100 complete control

Question: Which pest or weed control at 250 g/ha [1] does the source give for Cc1cc(-c2ccc(C(F)(F)F)cc2)nn1-c1c(O)cnn(C)c1=O [Compound 1, 5-hydroxy-2-methyl-4-[5-methyl-3-[4-(trifluoromethyl)phenyl]-1H-pyrazol-1-yl]-3(2H)-pyridazinone] here?
Answer: 100%

Question: What about the pest or weed control at 62 g/ha ([2]; post-emergence, Postemergence) of the same molecule?
Answer: 0%

Question: And the pest or weed control at 125 g/ha ([2]; post-emergence, Postemergence)?
Answer: 0%

Question: And the pest or weed control at 250 g/ha ([2]; post-emergence, Postemergence)?
Answer: 0%

Question: What about the pest or weed control at 31 g/ha ([2]; pre-emergence, Preemergence, 31 g ai/ha, 0 to 100 scale, 0 no effect, 100 complete control) of the same molecule?
Answer: 0%

Question: And the pest or weed control at 62 g/ha ([2]; pre-emergence, Preemergence)?
Answer: 0%

Question: And the pest or weed control at 125 g/ha ([2]; pre-emergence, Preemergence)?
Answer: 0%

Question: What about the pest or weed control at 250 g/ha ([2]; pre-emergence, Preemergence) of the same molecule?
Answer: 0%

Question: And the pest or weed control at 31 g/ha [3, 10]?
Answer: 95%

Question: What about the pest or weed control at 62 g/ha ([3]; post-emergence, Postemergence) of the same molecule?
Answer: 100%

Question: What about the pest or weed control at 125 g/ha ([3]; post-emergence, Postemergence) of the same molecule?
Answer: 100%

Question: And the pest or weed control at 250 g/ha ([3]; post-emergence, Postemergence)?
Answer: 100%

Question: What about the pest or weed control at 31 g/ha [3, 11] of the same molecule?
Answer: 80%

Question: What about the pest or weed control at 62 g/ha ([3]; pre-emergence, Preemergence) of the same molecule?
Answer: 100%

Question: And the pest or weed control at 125 g/ha ([3]; pre-emergence, Preemergence)?
Answer: 100%

Question: What about the pest or weed control at 250 g/ha ([3]; pre-emergence, Preemergence) of the same molecule?
Answer: 100%

Question: What about the pest or weed control at 31 g/ha [4, 10] of the same molecule?
Answer: 100%

Question: And the pest or weed control at 62 g/ha ([4]; post-emergence, Postemergence)?
Answer: 100%

Question: And the pest or weed control at 125 g/ha ([4]; post-emergence, Postemergence)?
Answer: 100%

Question: What about the pest or weed control at 250 g/ha ([4]; post-emergence, Postemergence) of the same molecule?
Answer: 100%

Question: What about the pest or weed control at 31 g/ha [4, 11] of the same molecule?
Answer: 100%

Question: And the pest or weed control at 62 g/ha ([4]; pre-emergence, Preemergence)?
Answer: 100%

Question: What about the pest or weed control at 125 g/ha ([4]; pre-emergence, Preemergence) of the same molecule?
Answer: 100%

Question: And the pest or weed control at 250 g/ha ([4]; pre-emergence, Preemergence)?
Answer: 100%

Question: And the pest or weed control at 31 g/ha [5, 10]?
Answer: 0%

Question: And the pest or weed control at 62 g/ha ([5]; post-emergence, Postemergence)?
Answer: 0%

Question: What about the pest or weed control at 125 g/ha ([5]; post-emergence, Postemergence) of the same molecule?
Answer: 40%

Question: What about the pest or weed control at 250 g/ha ([5]; post-emergence, Postemergence) of the same molecule?
Answer: 50%

Question: And the pest or weed control at 31 g/ha [5, 11]?
Answer: 0%

Question: And the pest or weed control at 62 g/ha ([5]; pre-emergence, Preemergence)?
Answer: 0%

Question: And the pest or weed control at 125 g/ha ([5]; pre-emergence, Preemergence)?
Answer: 0%

Question: And the pest or weed control at 250 g/ha ([5]; pre-emergence, Preemergence)?
Answer: 0%

Question: And the “Plant response rating, Barley” value [6, 12]?
Answer: 0

Question: And the “Plant response rating, Barley” value ([6]; 62 g ai/ha, scale 0 to 100)?
Answer: 0

Question: And the “Plant response rating, Barley” value ([6]; 125 g ai/ha, scale 0 to 100)?
Answer: 0

Question: And the “Plant response rating, Barley” value ([6]; 250 g ai/ha, scale 0 to 100)?
Answer: 30

Question: And the “Plant response rating, Canarygrass” value [7, 12]?
Answer: 0

Question: And the “Plant response rating, Canarygrass” value ([7]; 62 g ai/ha, scale 0 to 100)?
Answer: 0

Question: What about the “Plant response rating, Canarygrass” value ([7]; 125 g ai/ha, scale 0 to 100) of the same molecule?
Answer: 0

Question: And the “Plant response rating, Canarygrass” value ([7]; 250 g ai/ha, scale 0 to 100)?
Answer: 40

Question: And the “Plant response rating, Chickweed” value [8, 12]?
Answer: 0

Question: And the “Plant response rating, Chickweed” value ([8]; 62 g ai/ha, scale 0 to 100)?
Answer: 0

Question: What about the “Plant response rating, Chickweed” value ([8]; 125 g ai/ha, scale 0 to 100) of the same molecule?
Answer: 0

Question: And the “Plant response rating, Chickweed” value ([8]; 250 g ai/ha, scale 0 to 100)?
Answer: 5

Question: And the “Plant response rating, Windgrass” value [9, 12]?
Answer: 95

Question: What about the “Plant response rating, Windgrass” value ([9]; 62 g ai/ha, scale 0 to 100) of the same molecule?
Answer: 100

Question: And the “Plant response rating, Windgrass” value ([9]; 125 g ai/ha, scale 0 to 100)?
Answer: 100

Question: And the “Plant response rating, Windgrass” value ([9]; 250 g ai/ha, scale 0 to 100)?
Answer: 100

Reference: patent US20100267561A1, “HERBICIDAL PYRIDAZINONE DERIVATIVES” (priority 2007, published 2010)
